# From paper PMC10180113, “Thermodynamic and Kinetic Stabilities of Al(III) Complexes with N2O3 Pentadentate Ligands” (Molecules, 2023)
# Like-named read-outs stand apart in the source and are kept apart here. Marks after values point to notes of the source that are not given here.
# Legend:
# [1] = Protonation constants of the ligands (pH-potentiometry, spectrophotometry); type: physicochemical; settings: 0.15 M NaNO3, 25 °C; for logK1^H / logK2^H / logK3^H / logK4^H: pH-potentiometry; for ΣlogK1–4^H: total basicity
# Procedure: Since the thermodynamic properties of any metal complex proposed for in vivo applications must be characterized by high thermodynamic stability, the equilibrium properties of AMPTA, AMPDA-HB, and CD3A-Bn ligands and their Al(III) complexes were investigated in detail. First, the protonation constants of the ligands, defined by Equation (1), were determined by pH-potentiometry and the logKi^H values are listed in Table 1. (1) KiH=HiL/Hi−1LH^+
# The protonation constants of the AMPTA, AMPDA-HB, and CD3A-Bn and those of the Al(III) complexes were determined by pH-potentiometric titration. The metal-to-ligand concentration ratio was 1:1 (the concentration of the ligand was generally 0.002 M). For the pH measurements and titrations, a Metrohm 888 Titrando automatic titration workstation with a Metrohm-6.0234.110 combined electrode was used. Equilibrium measurements were carried out at a constant ionic strength (0.15 M NaNO3) in 6 mL samples at 25 °C under magnetic stirring and N2 bubbling. The titrations were made in the pH range 1.7–12.0. KH-phthalate (pH = 4.005) and borax (pH = 9.177) buffers were used to calibrate the pH meter. For the calculation of [H^+] from the measured pH values, the method proposed by Irving et al. was used. A 0.01 M HNO3 solution was titrated with the standardized NaOH solution in the presence of 0.15 M NaNO3 ionic strength. The differences (A) between the measured (pHread) and calculated pH (−log[H^+]) values were used to obtain the equilibrium H^+ concentration from the pH values measured in the titration experiments (A = −0.035). The waiting time between two pH measurements was 60 s. For the equilibrium calculations, the stoichiometric water ionic product (pKw) was also needed to calculate [OH^−] values under basic conditions. The VNaOH-pHread data pairs of the HNO3NaOH titration obtained in the pH range 10.5–12.0 were used to calculate the pKw value (pKw = 13.78). The protonation and stability constants were calculated with the PSEQUAD program.
# [2] = Stability and protonation constants of the Al(III) complexes (pH-potentiometry, 27Al NMR); type: physicochemical; settings: 0.15 M NaNO3, 25 °C; for logβAlLH−1: cumulative stability constant of AlLH−1; for logKAlLH−1: protonation constant of AlLH−1 species, pH-potentiometry; for logKAlL: stability constant of Al(III) complex, 27Al NMR spectroscopy
# Procedure: The stability and protonation constants of the Al(III) complexes of AMPTA, AMPDA-HB, and CD3A-Bn, defined by Equations (2)–(4), were investigated by pH-potentiometry and by multinuclear NMR spectroscopy at 25 °C in 0.15 M NaNO3 solution. (2) KAlL=AlL/Al^3+L (3) KAlLH−1=AlL/AlLH−1H^+ (4) Al^3++L+OH^− ⇌AlLH−1 βAlLH−1=AlLH−1/Al^3+LOH^−
# In order to avoid the hydrolysis of the Al(III) ion, the pH-potentiometric titration of the pre-prepared complexes of AMPTA, AMPDA-HB, and CD3A-Bn ligands was performed at pH > 4.0.
# To determine the stability constant of the Al(III) complexes, the ^1H and ^27Al NMR spectra of the Al^3+-AMPTA, Al^3+-AMPDA-HB, and Al^3+-CD3A-Bn systems were recorded in the pH range 8.0–12. ^1H and ^27Al NMR spectra of the three systems are shown in Figures S1–S6.
# The analysis of the ^27Al NMR data was used for the calculation of the stability constants of the [Al(AMPTA)], [Al(AMPDA-HB)], and [Al(CD3A-Bn)] complexes. Integrals of the ^27Al NMR signal ([Al(OH)4]^− at 81 ppm, ν½ = 11 Hz; see Figures S2, S4 and S6) were used for the calculation of the logKAlL value of the three Al complexes by taking into account the protonation constant of the AlLH−1 species (Equation (3), Table 1) and the known hydrolysis constants of the free Al^3+ ion (logK[Al(OH)]^2+ = −4.60, logK[Al(OH)2]^+ = −9.09, logK[Al(OH)3] = −14.94 and logK[Al(OH)4]^− = −23.08, logK[Al2(OH)2]^4+ = −8.0, logK[Al3(OH)4]^5+ = −13.47, logK[Al13(OH)32]^7+ = −104.81). […] The equilibrium data obtained by pH-potentiometry and multinuclear NMR spectroscopy were used to calculate the species distribution diagram for the Al(III)-AMPTA, Al(III)AMPDA-HB, and Al(III)-CD3A-Bn systems (Figure 1, Figure 2 and Figure 3). The amount of [Al(OH)4]^− species determined by ^27Al NMR studies (Figures S2, S4 and S6) is also shown in Figure 2, Figure 3 and Figure 4.
# The protonation constants of the AMPTA, AMPDA-HB, and CD3A-Bn and those of the Al(III) complexes were determined by pH-potentiometric titration. The metal-to-ligand concentration ratio was 1:1 (the concentration of the ligand was generally 0.002 M). For the pH measurements and titrations, a Metrohm 888 Titrando automatic titration workstation with a Metrohm-6.0234.110 combined electrode was used. Equilibrium measurements were carried out at a constant ionic strength (0.15 M NaNO3) in 6 mL samples at 25 °C under magnetic stirring and N2 bubbling. The titrations were made in the pH range 1.7–12.0. KH-phthalate (pH = 4.005) and borax (pH = 9.177) buffers were used to calibrate the pH meter. For the calculation of [H^+] from the measured pH values, the method proposed by Irving et al. was used. A 0.01 M HNO3 solution was titrated with the standardized NaOH solution in the presence of 0.15 M NaNO3 ionic strength.
# [3] = cited from earlier work
# [4] = 0.1 M KNO3, 25 °C, cited from earlier work; for logKAlL: stability constant of Al(III) complex
# [5] = parameters: method as in doi:10.1007/s11144-015-0892-6; settings: 1.0 M NaCl, cited from earlier work
# [6] = parameters: method as in doi:10.1021/ac60305a041, doi:10.1021/ja00792a018; settings: 0.5 M Me4NCl, 25 °C; cited from earlier work
# [7] = Protonation constants of the ligands (pH-potentiometry, spectrophotometry); type: physicochemical; settings: 0.15 M NaNO3, 25 °C
# [8] = parameters: method as in PMID 31830368; settings: up to 4 h in PBS, serum, and EDTA solutions; cited from earlier work
# [9] = parameters: method as in PMID 31830368; settings: cited from earlier work
smiles,measurement,setting,value
"O=C(O)CN(CC(=O)O)[C@@H]1CCCC[C@H]1N(CC(=O)O)Cc1ccccc1 [CD3A-Bn, trans-1,2-diaminocyclohexane-N-benzyl-N,N′,N′-triacetic acid]",logK1^H,[1],10.72 (2)
same,logK2^H,[1],5.22 (3)
same,logK3^H,[1],3.34 (3)
same,logK4^H,[1],0.59 (9)
same,ΣlogK1–4^H,[1],19.87
same,logβAlLH−1,[2],9.3 (1)
same,logKAlLH−1,[2],5.20 (4)
same,logKAlL,[2],14.5 (1) ^d
"O=C(O)CN(CC(=O)O)[C@@H]1CCCC[C@H]1N(CC(=O)O)CC(=O)O (relative stereo) [CDTA, trans-1,2-diaminocyclohexane-N,N,N′,N′-tetraacetic acid]",logK1^H,"[3]; 0.15 M NaNO3, 25 °C",9.54
same,logK2^H,"[3]; 0.15 M NaNO3, 25 °C",6.08
same,logK3^H,"[3]; 0.15 M NaNO3, 25 °C",3.65
same,logK4^H,"[3]; 0.15 M NaNO3, 25 °C",2.69
same,logK5^H,"[3]; 0.15 M NaNO3, 25 °C",1.14
same,ΣlogK1–4^H,"[3]; 0.15 M NaNO3, 25 °C",21.96
same,logKAlLH−1,[4],7.70 ^e
same,logβAlLH−1,[4],11.2 ^e
same,logKAlL,[4],18.9 ^e
O=C([O-])CN1CCN(CC(=O)[O-])CCN(CC(=O)[O-])CC1.[Al+3] [[Al(NOTA)]],KAl(L)H−2 (KAl(NOTA)H−1 for [Al(NOTA)]),[5]; 25 °C,1.6 × 10^12 c M^−1
same,k0,[5]; 25 °C,2e-06 s⁻¹
same,k1 (kOH for [Al(NOTA)]),[5]; 25 °C,6.8 × 10^−6 b M^−1 s^−1
same,logKAl(L)H−2,[5]; 25 °C,12.2
same,kd (pH = 7.4),"[5]; pH 7.4, 25 °C",2 × 10^−6 s^−1
same,"t1/2 (pH = 7.4), dissociation half-life (ln2/kd)","[5]; pH 7.4, 25 °C",94 h
O=C([O-])CN(CCN(CC(=O)O)CC(=O)O)CC(=O)O.[Na+] [[Na(EDTA)]^3−],logKNaL,[6],1.43
O=C(O)CN(Cc1ccccc1O)CC1CCCCN1CC(=O)O (stereo not shown) [AMPDA-HB],logK3^H,[1],4.94 (5)
same,logK4^H,[1],2.01 (5)
same,ΣlogK1–4^H,[1],28.87
same,logβAlLH−1,[2],11.7 (1)
same,logKAlLH−1,[2],6.94 (6)
same,logKAlL,[2],18.6 (1) ^d
same,logK1^H,"[3]; 0.15 M NaCl, 25 °C",12.4
same,logK2^H,"[3]; 0.15 M NaCl, 25 °C",10.14
same,logK3^H,"[3]; 0.15 M NaCl, 25 °C",4.76
same,logK4^H,"[3]; 0.15 M NaCl, 25 °C",1.91
same,ΣlogK1–4^H,"[3]; 0.15 M NaCl, 25 °C",29.21
same,logK1^H,[7],12.0 (1) ^b
same,logK2^H,[7],9.92 (5) ^b
same,stability in vitro of the [Al18F]-labelled complex,[8],high stability
same,excretion of the [Al18F]-labelled complex in vivo,[9],rapid hepatobiliary and renal excretion
same,accumulation in the bones of the [Al18F]-labelled complex,[9]; in vivo,low accumulation in the bones
O=C(O)CN(CCN(CC(=O)O)CC(=O)O)CC(=O)O [EDTA],logK1^H,"[3]; 0.15 M NaNO3, 25 °C",9.40
same,logK2^H,"[3]; 0.15 M NaNO3, 25 °C",6.10
same,logK3^H,"[3]; 0.15 M NaNO3, 25 °C",2.72
same,logK4^H,"[3]; 0.15 M NaNO3, 25 °C",2.08
same,logK5^H,"[3]; 0.15 M NaNO3, 25 °C",1.23
same,ΣlogK1–4^H,"[3]; 0.15 M NaNO3, 25 °C",20.30
same,logKAlLH−1,[4],6.0 ^e
same,logβAlLH−1,[4],10.5 ^e
same,logKAlL,[4],16.5 ^e
Oc1ccccc1 [phenol],logK^H,[3]; 0.1 M NaClO4,10.0
O=C(O)CN(CC(=O)O)CC1CCCCN1CC(=O)O (stereo not shown) [AMPTA],logK1^H,[1],11.49 (1)
same,logK2^H,[1],5.56 (4)
same,logK3^H,[1],2.75 (5)
same,logK4^H,[1],1.73 (5)
same,ΣlogK1–4^H,[1],21.53
same,logβAlLH−1,[2],9.8 (1)
same,logKAlLH−1,[2],5.06 (6)
same,logKAlL,[2],14.9 (1) ^d
same,logK1^H,"[3]; 0.15 M NaCl, 25 °C",11.67
same,logK2^H,"[3]; 0.15 M NaCl, 25 °C",5.47
same,logK3^H,"[3]; 0.15 M NaCl, 25 °C",2.74
same,logK4^H,"[3]; 0.15 M NaCl, 25 °C",1.62
same,ΣlogK1–4^H,"[3]; 0.15 M NaCl, 25 °C",21.50
O=C([O-])CN(CC(=O)O)C1CCCCC1N(CC(=O)O)CC(=O)O.[Na+] (stereo not shown) [[Na(CDTA)]^3−],logKNaL,[6],4.66
